Measured values reported in patent US10620215B2, “Real-time imaging sensor for measuring cellular thiol level” (CELL2IN, INC., priority 2014, dated 2020).

Tests used:
RAW264.7 = experiment: Level of thiols in RAW264.7 macrophages after NADPH oxidase activation, by FreSH-tracer F510/F580 ratio; type: cell-based; details: PMA treatment for 10-20 minutes; returned to basal level after 40-50 minutes
Method: (§1) HeLa and RAW264.7 cells were cultured in DMEM (containing 10% heat-inactivated FBS (Hyclone), 100 U/ml of penicillin, 100 μg/ml of streptomycin sulfate and 2 mM glutamine and free of phenol red). HeLa (1.8×10^5 cells/dish) and RAW264.7 (2×10^5 cells/dish) were seeded in 35 mm cover glass bottom dishes (SPL Life Sciences), and then cultured under the conditions of 37° C. and 5% CO2 for the indicated time. Before observation using a fluorescence microscope, the HeLa cells were incubated with 2 mL of a medium containing 5 μM of the FreSH-tracer HeLa for 2 hours, and the RAW264.7 cells were incubated for 4 hours. Real-time images of the cells were acquired using a Nikon A1 laser scanning confocal microscope. The imaging test was 2 performed while the cells were incubated under the conditions of 37° C. and 5% CO2 in a chamber mounted in a Nikon ECLIPSE Ti inverted microscope equipped with CFI Plan apochromat 60× and 1.40 numerical aperture (NA) objective lenses. The FreSH-tracer was excited with laser beams at 403 nm and 488 nm, and the fluorescence of the tracer was detected through filters with 500-550 nm and 570-620 nm band intervals. Using NIS-Elements AR software, the experimental data were analyzed and the ratio of fluorescence was imaged.
ROS that are generated by phagocytic NADPH oxidase (Phox) activity are essential defense substances that kill invasive microorganisms. […]

[1] = Chemical equilibrium constant (Kd) of the tracer with β-mercaptoethanol, from fluorescence emission after equilibration; type: binding
Method: (§2) A buffer (10 mM phosphate, 150 mM NaCl, pH 7.4, H2O:DMSO=98:2) containing a mixture of a thiol compound (0-200 mM) and a FreSH-tracer (10 μM) was prepared, and the time-dependent UV-Vis absorption spectrum and fluorescence emission spectrum of the buffer were measured with S-3100 spectrophotometer and Hitachi F-7000 spectrophotometer. For preparation of buffers for use in in vitro experiments at pHs of pH 4, 5, 9 and 10, acetate and CHES (2-(cyclohexylamino)ethanesulfonate) were used instead of phosphate.
(§3) After a chemical equilibrium between the thiol compound (0-200 mM) and the FreSH-tracer was formed by an in vitro reaction, the emission spectrum of fluorescence emitted upon excitation with light at a wavelength of 430 nm was measured. The relationship between the fluorescence intensity at the maximum emission wavelength (580 nm) and the concentration of the thiol compound was analyzed by non-linear regression to determine the chemical equilibrium constant (Kd) between the thiol compound and the FreSH-tracer.

[2] = Chemical equilibrium constant (Kd) and fluorescence ratio response of the tracer with glutathione (GSH) in vitro; type: binding; details: equilibration with GSH
Method: as §2, §3

HeLa cells = experiment: Level of thiols / reduced GSH in living HeLa cells, by FreSH-tracer fluorescence intensity ratio; type: cell-based; details: treatment with GSH-related enzyme inhibitor
Method: as §1, with “imaged. […]” for “imaged.”

Compound | Kd [1] | further results
CCCCCCCCCCCCCC(=O)O[C@@H]1[C@@H](C)[C@@]2(O)[C@@H](C=C(CO)C[C@]3(O)C(=O)C(C)=C[C@@H]23)[C@@H]2C(C)(C)[C@]12OC(C)=O [PMA, phorbol 12-myristate 13-acetate] | – | level of thiols in the cells (RAW264.7): reduced
CN(C)C(=O)C(C#N)=Cc1cc2cc3c4c(c2oc1=O)CCCN4CCC3 [formula 2] | 12 ± 1 mM | –
CC(=O)OCOC(=O)CC[C@H](NC(=O)C1CCN(C(=O)C(C#N)=Cc2cc3cc4c5c(c3oc2=O)CCCN5CCC4)CC1)C(=O)OCOC(C)=O [formula 7] | – | Kd [2]: 3.7 ± 0.2 mM
CCOC(=O)CNC(=O)C(C#N)=Cc1cc2cc3c4c(c2oc1=O)CCCN4CCC3 [formula 3] | 14 ± 1 mM | –
CCCCS(=N)(=O)CCC(N)C(=O)O (centres unmarked) [BSO, buthionine sulphoximine] | – | fluorescence intensity ratio of the sensor (level of reduced GSH) in HeLa cells (HeLa cells): reduced
CC(=O)OCOC(=O)C1CCN(C(=O)C(C#N)=Cc2cc3cc4c5c(c3oc2=O)CCCN5CCC4)CC1 [formula 4] | – | Kd [2]: 2.8 ± 0.4 mM

Continued, in another order:

Kd [1] | Compound | further results
2.2 ± 0.1 mM | N#CC(=Cc1cc2cc3c4c(c2oc1=O)CCCN4CCC3)C(=O)N1CCC(C(=O)NCC[P+](c2ccccc2)(c2ccccc2)c2ccccc2)CC1 [formula 5] | –
2.2 ± 0.1 mM | CCN(CC)c1ccc2cc(C=C(C#N)C(=O)N(C)C)c(=O)oc2c1 [formula 8] | –
